In BigSolDB 2.1:

CC(C)C[C@H](N)C(=O)O
solubility (mole fraction)
Details | 283.15 K | 288.15 K | 293.15 K | 298.15 K | 303.15 K | 308.15 K | 313.15 K | 318.15 K | 323.15 K | 328.15 K
in 1,4-dioxane | – | 3.61e-05 | 5.3e-05 | 7.25e-05 | 9.39e-05 | 0.000122 | 0.000149 | 0.00019 | 0.000238 | 0.000309
in acetone | 3.16e-05 | 4.52e-05 | 6.31e-05 | 8.39e-05 | 0.00011 | 0.000145 | 0.000179 | 0.000218 | 0.000269 | –
in acetonitrile | 3.87e-05 | 4.44e-05 | 5.02e-05 | 5.71e-05 | 6.68e-05 | 7.59e-05 | 8.6e-05 | 0.000102 | 0.000123 | –
in ethanol | 0.000146 | 0.00015 | 0.000156 | 0.000171 | 0.00019 | 0.000206 | 0.000221 | 0.000286 | 0.00034 | –
in ethyl acetate | 0.000156 | 0.000169 | 0.000197 | 0.000222 | 0.00026 | 0.000303 | 0.000341 | 0.000396 | 0.000449 | –
in isobutanol | 0.000152 | 0.000157 | 0.000162 | 0.000175 | 0.000201 | 0.000228 | 0.000254 | 0.000304 | 0.00035 | –
in isopropanol | 0.000156 | 0.00016 | 0.000173 | 0.000187 | 0.000212 | 0.000254 | 0.000271 | 0.000318 | 0.000368 | –
in methanol | 0.000558 | 0.000588 | 0.000655 | 0.000686 | 0.000744 | 0.000817 | 0.000896 | 0.001 | 0.00118 | –
in methyl acetate | 0.000158 | 0.000162 | 0.000168 | 0.000178 | 0.000192 | 0.000211 | 0.000227 | 0.000254 | 0.000287 | –
in n-butanol | 2.59e-05 | 2.78e-05 | 4.16e-05 | 5.42e-05 | 7.83e-05 | 0.000103 | 0.000129 | 0.000171 | 0.000215 | –
in n-propanol | 9.7e-05 | 0.000107 | 0.000123 | 0.000142 | 0.000163 | 0.000187 | 0.000217 | 0.00026 | 0.000316 | –
in water | 0.00322 | 0.00326 | 0.00331 | 0.00339 | 0.00348 | 0.00358 | 0.00374 | 0.00385 | 0.00404 | –
